Format in all cases: cell-based
The subject of data set [1] is HIV-1 gp160 (HXB2 strain) mediated cell/cell fusion. The data set is described as follows: Cell/cell fusion assay (HOS hCXCR4/hCCR5/hCD4/pHIV-LTR-luciferase cells with HEK-293 cells expressing HIV-1 tat, rev, gp160), luciferase readout. The conditions noted are these: Homo sapiens, HEK293, 24 h, read-out: Fusion assay (pIC50) (converted). An excerpt:
The complete coding sequences of HIV-1 tat (GenBank Accession No. X07861) and rev (GenBank Accession No. M34378) were cloned into pcDNA3.1 expression vectors containing G418 and hygromycin resistance genes, respectively. The complete coding sequence of the HIV-1 (HXB2 strain) gp160 envelope gene (nucleotide bases 6225-8795 of GenBank Accession No. K03455) was cloned into plasmid pCRII-TOPO. The three HIV genes were additionally inserted into the baculovirus shuttle vector, pFastBacMam1, under the transcriptional control of the CMV promoter. A construction of the pHIV-1 LTR containing mutated NFkB sequences linked to the luciferase reporter gene was prepared by digesting pcDNA3.1, containing the G418 resistance gene, with Nru I and Bam HI to remove the CMV promoter. LTR-luc was then cloned into the Nru I/Bam HI sites of the plasmid vector. Plasmid preparations were performed after the plasmids were amplified in Escherichia coli strain DH5-alpha. The fidelity of the inserted sequences was confirmed by double-strand nucleotide sequencing using an ABI Prism Model 377 automated sequencer.
Recombinant BacMam baculoviruses were constructed from pFastBacMam shuttle plasmids by using the bacterial cell-based Bac-to-Bac system. Viruses were propagated in Sf9 (Spodoptera frugiperda) cells cultured in Hink's TNM-FH Insect media supplemented with 10% (v/v) fetal bovine serum and 0.1% (v/v) pluronic F-68 according to established protocols.
Human osteosarcoma (HOS) cells that naturally express human CXCR4 were transfected with human CCR5, human CD4 and the pHIV-LTR-luciferase plasmid using FuGENE 6 transfection reagent. Single cells were isolated and grown under selection condition in order to generate a stable HOS (hCXCR4/hCCR5/hCD4/pHIV-LTR-luciferase) clonal cell line. The cells were maintained in Dulbeccos modified Eagles media supplemented with 10% fetal calf serum (FCS), G418 (400 ug/ml), puromycin (1 ug/ml), mycophenolic acid (40 ug/ml), xanthine (250 ug/ml) and hypoxanthine (13.5 ug/ml) to maintain a selection pressure for cells expressing the LTR-luciferase, hCCR5 and hCD4, respectively. Human embryonic kidney (HEK-293) cells stably transfected to express the human macrophage scavenging receptor (Class A, type 1; GenBank Accession No. D90187), were maintained in DMEM/F-12 media (1:1) supplemented with 10% FCS and 1.5 ug/ml puromycin. The expression of this receptor by the HEK-293 cells enhances their ability to stick to tissue culture treated plasticware.
HEK-293 cells were harvested using enzyme-free cell dissociation buffer. The cells were resuspended in DMEM/F-12 media supplemented with 10% FCS and 1.5 ug/ml and counted. Tranductions were performed by direct addition of BacMam baculovirus containing insect cell media to cells. The cells were simultaneously transduced with BacMam baculovirus expressing HIV-1 tat, HIV-1 rev and HIV-1 gp160 (from the HXB2 HIV strain). Routinely an MOI of 10 of each virus was added to the media containing the cells. 2 mM butyric acid was also added to the cells at this stage to increase protein expression in transduced cells. The cells were subsequently mixed and seeded into a flask at 30 million cells per T225. The cells were incubated at 37° C., 5% CO2, 95% humidity for 24 h to allow for protein expression.
HEK and HOS cells were harvested in DMEM/F-12 media containing 2% FCS and DMEM media containing 2% FCS, respectively, with no selection agents added. Compounds were plated as 1 ul spots in 100% DMSO on a 96-well CulturPlate plates. HOS cells (50 ul) were added first to the wells, followed immediately by the HEK cells (50 ul). The final concentration of each cell type was 20,000 cells per well. Following these additions, the cells were returned to a tissue culture incubator (37° C.; 5% CO2/95% air) for an additional 24 h.
Following the 24 h incubation, total cellular luciferase activity was measured using the LucLite Plus assay kit (Packard, Meridien, Conn.). […]

In data set [2] the target is T1, CXCR4 receptor (Homo sapiens, UniProt P61073).
T1 construct: expressed in transfected cells; host or cells: HEK-293 cells (stably expressing human macrophage scavenger receptor) transduced with human CXCR4 BacMam and Gqi5 BacMam
T1 sequence (P61073 whole entry): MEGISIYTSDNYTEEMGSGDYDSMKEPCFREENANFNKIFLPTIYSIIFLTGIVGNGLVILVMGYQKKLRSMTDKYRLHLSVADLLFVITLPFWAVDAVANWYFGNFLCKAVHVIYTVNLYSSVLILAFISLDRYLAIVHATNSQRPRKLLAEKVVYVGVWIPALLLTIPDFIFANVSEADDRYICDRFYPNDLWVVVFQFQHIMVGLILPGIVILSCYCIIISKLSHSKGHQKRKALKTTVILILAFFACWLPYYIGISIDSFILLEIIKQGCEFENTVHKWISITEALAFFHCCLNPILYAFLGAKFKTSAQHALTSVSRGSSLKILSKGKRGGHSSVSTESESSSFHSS
As to the kind of experiment: Functional FLIPR assay (block of SDF-1 alpha induced [Ca2+]i change). The conditions noted are these: HEK-293 cells, human CXCR4 BacMam and Gqi5 BacMam, read-out: Functional assay (pIC50) (converted). The protocol: Human embryonic kidney (HEK-293) cells were maintained and harvested as described above. Cells were plated in 96-well, black clear bottom, poly-lysine coated plates at a concentration of 40,000 cells per well in a final volume of 100 ul containing human CXCR4BacMam (MOI=25) and Gqi5 BacMam (MOI=12.5). The cells were incubated at 37° C., 5% CO2, 95% humidity for 24 h to allow for protein expression.
After the required incubation time the cells were washed once with 50 ul of fresh serum-free DMEM/F12 media containing probenicid. 50 ul of dye solution was then added to the cells (Calcium Plus Assay Kit Dye; Molecular Devices) was dissolved in 200 ml of the above probenicid/BSA containing media and incubated for 1 h. Cell plates were transferred to a Fluorometric Imaging Plate Reader (FLIPR). Upon addition the effect of the compounds on the change in [Ca^2+]i was examined to determine if the compounds were agonists or antagonists (ability to block SDF-1 alpha activity) at the CXCR4 receptor. IC50 values are determined and pKb values are calculated using the Leff and Dougall equation: KB═IC50/((2+([agonist]/EC50̂b)̂1/b−1) Where IC50 is that defined by the antagonist concentration-response curve [agonist)] is the EC80 concentration of agonist used EC50 is that defined by the agonist concentration-response curve b is the slope of the agonist concentration-response curve.

Data set [3] can be described thus: Compound cytotoxicity in HOS cells in the absence of virus (CellTiter-Glo). Particulars: human, no virus, read-out: Cytotox (pIC50) (converted). The protocol:
Compounds were profiled against two HIV-1 viruses, the M-tropic (CCR5 utilizing) Ba-L strain and the T-tropic (CXCR4 utilizing) IIIB strain. Both viruses were propagated in human peripheral blood lymphocytes. Compounds were tested for there ability to block infection of the HOS cell line (expressing hCXCR4/hCCR5/hCD4/pHIV-LTR-luciferase) by either HIV-1 Ba-L or HIV-1 IIIB. Compound cytotoxicity was also examined in the absence of virus addition.
HOS cells (expressing hCXCR4/hCCR5/hCD4/pHIV-LTR-luciferase) were harvested and diluted in Dulbeccos modified Eagles media supplemented with 2% FCS and non-essential amino acid to a concentration of 60,000 cells/ml. The cells were plated into 96-well plates (100 ul per well) and the plates were placed in a tissue culture incubator (37° C.; 5% CO2/95% air) for a period of 24 h.
Subsequently, 50 ul of the desired drug solution (4 times the final concentration) was added to each well and the plates were returned to the tissue culture incubator (37° C.; 5% CO2/95% air) for 1 h. Following this incubation 50 ul of diluted virus was added to each well (approximately 2 million RLU per well of virus). The plates were returned to the tissue culture incubator (37° C.; 5% CO2/95% air) and were incubated for a further 96 h.
Following this incubation the endpoint for the virally infected cultures was quantified following addition of Steady-Glo Luciferase assay system reagent (Promega, Madison, Wis.). Cell viability or non-infected cultures was measured using a CellTiter-Glo luminescent cell viability assay system (Promega, Madison, Wis.). All luminescent readouts are performed on a Topcount luminescence detector (Packard, Meridien, Conn.).
For orientation: Cellular ATP, detected with luciferase, serves as a proxy for viable cell number.

Data set [4] has as its system HIV-1 IIIB. As to the kind of experiment: HOS HIV-1 infectivity assay. Put shortly: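 Cytotoxicity was measured by CellTiter-Glo in virus-free cultures, while antiviral activity used Steady-Glo luciferase after 96 h infection with T-tropic IIIB virus (~2 million RLU/well). Both used HOS hCXCR4/hCCR5/hCD4/pHIV-LTR-luciferase cells in 2% FCS DMEM, with compound added 1 h before virus.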

[5] abbreviates: Human immunodeficiency virus 1, IIIB, as determined by the infectivity assay, strain not stated in Table 2, read-out: Activity Level.
Setting [6] is: Human immunodeficiency virus 1, T-tropic (CXCR4 utilizing) IIIB strain, HOS cells, 96 h, read-out: HOS (3B).

pIC50: −log10 of the molar value. Where two headings read alike, the source gives them in different places. Bounds are passed on as bounds.

On to `CN(Cc1nc2ccccc2n1Cc1cccnc1)C1CCCc2cccnc21` (stereo not drawn) [Example 3, N-Methyl-N-{[1-(3-pyridinylmethyl)-1H-benzimidazol-2-yl]methyl}-5,6,7,8-tetrahydro-8-quinolinamine], for which the IC50 in data set [1] was 1780 nM; in data set [2], 398 nM. Besides, in data set [3], the IC50 at 96 h is more than 100000 nM. Moreover, the pIC50 in data set [4] (setting [5]) was 5.00 to 6.30; in data set [4] (setting [6]) it was 6.24.
Take `CN(Cc1nc2ccccc2n1CCN1CCCCC1)C1CCCc2cccnc21` (stereo not drawn) [Example 4, N-Methyl-N-({1-[2-(1-piperidinyl)ethyl]-1H-benzimidazol-2-yl}methyl)-5,6,7,8-tetrahydro-8-quinolinamine]: the results for the IC50 in data set [1] and in data set [2] were 138 nM and 60.3 nM, respectively. Also, the IC50 at 96 h in data set [3] was more than 100000 nM. In addition, the pIC50 was 6.30 to 7.00 in data set [4] (setting [5]) and 6.81 in data set [4] (setting [6]).
As to `CN(Cc1nc2ccccc2n1CCN1CCOCC1)C1CCCc2cccnc21` (stereo not drawn) [Example 5, N-Methyl-N-({1-[2-(4-morpholinyl)ethyl]-1H-benzimidazol-2-yl}methyl)-5,6,7,8-tetrahydro-8-quinolinamine], the IC50 was 200 nM in data set [1] and 123 nM in data set [2]. For the same compound, the IC50 at 96 h in data set [3] is more than 100000 nM. The pIC50 in data set [4] (setting [5]) is 6.30 to 7.00; in data set [4] (setting [6]), 6.65.
Turning to `CN(Cc1nc2ccccc2n1CC1CCNCC1)C1CCCc2cccnc21` (stereo not drawn) [Example 6, N-Methyl-N-{[1-(4-piperidinylmethyl)-1H-benzimidazol-2-yl]methyl}-5,6,7,8-tetrahydro-8-quinolinamine], the figures for the IC50 in data set [1] and in data set [2] were 240 nM and 282 nM, respectively. In addition, the IC50 at 96 h in data set [3] was more than 100000 nM. For the same compound, the results for the pIC50 in data set [4] (setting [5]) and in data set [4] (setting [6]) were more than 7.00 and 7.05, respectively.
For the compound `CN1CCCC(Cn2c(CN(C)C3CCCc4cccnc43)nc3ccccc32)C1` (stereo not drawn) [Example 7, N-Methyl-N-({1-[(1-methyl-3-piperidinyl)methyl]-1H-benzimidazol-2-yl}methyl)-5,6,7,8-tetrahydro-8-quinolinamine], the IC50 in data set [1] was 20.9 nM; in data set [2], 8.13 nM. In data set [3], the IC50 at 96 h is more than 100000 nM. The results for the pIC50 in data set [4] (setting [5]) and in data set [4] (setting [6]) were more than 7.00 and 7.72, respectively.
For `CN1CCC(Cn2c(CN(C)C3CCCc4cccnc43)nc3ccccc32)C1` (stereo not drawn) [Example 8d, N-Methyl-N-({1-[(1-methyl-3-pyrrolidinyl)methyl]-1H-benzimidazol-2-yl}methyl)-5,6,7,8-tetrahydro-8-quinolinamine], the IC50 in data set [1] and in data set [2] was 74.1 nM each time. For the same compound, the IC50 at 96 h in data set [3] was more than 100000 nM. Besides, the pIC50 in data set [4] (setting [5]) is more than 7.00; in data set [4] (setting [6]), 7.24.
On to `CN1CCN(CCCn2c(CN(C)C3CCCc4cccnc43)nc3ccccc32)CC1` (stereo not drawn) [Example 9, N-Methyl-N-({1-[3-(4-methyl-1-piperazinyl)propyl]-1H-benzimidazol-2-yl}methyl)-5,6,7,8-tetrahydro-8-quinolinamine], for which the IC50 in data set [1] was 166 nM; in data set [2] it was 135 nM. The IC50 at 96 h in data set [3] was more than 100000 nM. The pIC50 in data set [4] (setting [5]) is more than 7.00; in data set [4] (setting [6]) it was 7.03.
As for `CN1CC(Cn2c(CN(C)C3CCCc4cccnc43)nc3ccccc32)C1` (stereo not drawn) [Example 10e, N-Methyl-N-({1-[(1-methyl-3-azetidinyl)methyl]-1H-benzimidazol-2-yl}methyl)-5,6,7,8-tetrahydro-8-quinolinamine], the IC50 in data set [1] was 91.2 nM; in data set [2], 117 nM. Moreover, in data set [3], the IC50 at 96 h is more than 100000 nM. The pIC50 was more than 7.00 in data set [4] (setting [5]) and 7.18 in data set [4] (setting [6]).
As to `CN1CCC(n2c(CN(C)C3CCCc4cccnc43)nc3ccccc32)CC1` (stereo not drawn) [Example 11i, N-Methyl-N-{[1-(1-methyl-4-piperidinyl)-1H-benzimidazol-2-yl]methyl}-5,6,7,8-tetrahydro-8-quinolinamine], the IC50 in data set [1] was 79.4 nM; in data set [2], 37.2 nM; in data set [4] (Human immunodeficiency virus 1, IIIB, HOS, 96 h, read-out: HOS (3B) (uM)), 0.082 µM. Also, the IC50 at 96 h in data set [3] was more than 100000 nM. Moreover, the pIC50 in data set [4] (Human immunodeficiency virus 1, IIIB, read-out: Activity Level) is more than 7.00.
For `CN(Cc1nc2ccccc2n1CCN)C1CCCc2cccnc21` (stereo not drawn) [Example 18, N-{[1-(2-Aminoethyl)-1H-benzimidazol-2-yl]methyl}-N-methyl-5,6,7,8-tetrahydro-8-quinolinamine], the IC50 in data set [1] was 316 nM; in data set [2], 166 nM. The IC50 at 96 h in data set [3] is more than 100000 nM.

(Values after patent US20080096861A1, “Chemical Compounds” (SMITHKLINE BEECHAM CORPORATION, priority 2004, published 2008).)
